# Measurements reported in patent publication US20170190671A1, “BIS(ARYL)CATECHOL DERIVATIVES AS HERBICIDES” (E I DU PONT DE NEMOURS AND COMPANY, priority 2014, published 2017).
# Experiments:
# [1] = test system: pigweed (Amaranthus retroflexus); test: Test A postemergence; format: in vivo; conditions: Amaranthus retroflexus, post-emergence, 240 h, 0 to 100 scale, read-out: Plant response rating, Pigweed
# Procedure, shortened: (§1)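 Greenhouse pot test, loam/sand soil. Formulation: non-phytotoxic solvent mix plus surfactant. Pre: directed spray onto soil after sowing. Post: plants at 1–2 leaf, 2–10 cm. Rated visually vs untreated controls at ~10 d, 0 (no effect) to 100 (complete control).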
# [2] = test system: wheat (Triticum aestivum); test: Test A postemergence; format: in vivo; conditions: Triticum aestivum, post-emergence, 240 h, 0 to 100 scale, read-out: Plant response rating, Wheat
# Procedure, shortened: as §1
# [3] = test system: giant foxtail (Setaria faberii); test: Test A postemergence; format: in vivo; conditions: Setaria faberi, post-emergence, 240 h, 0 to 100 scale, read-out: Plant response rating, Foxtail, Giant
# Procedure, shortened: as §1
# [4] = test system: barnyardgrass (Echinochloa crus-galli); test: Test A postemergence; format: in vivo; conditions: Echinochloa crus-galli, post-emergence, 240 h, 0 to 100 scale, read-out: Plant response rating, Barnyardgrass
# Procedure, shortened: as §1
# [5] = test system: Italian ryegrass (Lolium multiflorum); test: Test A postemergence; format: in vivo; conditions: Lolium multiflorum, post-emergence, 240 h, 0 to 100 scale, read-out: Plant response rating, Ryegrass, Italian
# Procedure, shortened: as §1
# [6] = test system: ragweed (common ragweed, Ambrosia elatior); test: Test A postemergence; format: in vivo; conditions: Ambrosia artemisiifolia, post-emergence, 240 h, 0 to 100 scale, read-out: Plant response rating, Ragweed
# Procedure, shortened: as §1
# [7] = test system: galium (catchweed bedstraw, Galium aparine); test: Test A postemergence; format: in vivo; conditions: Galium, post-emergence, 240 h, 0 to 100 scale, read-out: Plant response rating, Galium
# Procedure, shortened: as §1
# [8] = test system: blackgrass (Alopecurus myosuroides); test: Test A postemergence; format: in vivo; conditions: Alopecurus myosuroides, post-emergence, 240 h, 0 to 100 scale, read-out: Plant response rating, Blackgrass
# Procedure, shortened: as §1
# kochia (Kochia scoparia) [9] = test: Test A postemergence; format: in vivo; conditions: Bassia scoparia, post-emergence, 240 h, 0 to 100 scale, read-out: Plant response rating, Kochia
# Procedure, shortened: as §1
# corn (Zea mays) = test: Test A postemergence; format: in vivo; conditions: Zea mays, post-emergence, 240 h, 0 to 100 scale
# Procedure, shortened: as §1
# [10] = test system: pigweed (Amaranthus retroflexus); test: Test C postemergence; format: in vivo; conditions: Amaranthus retroflexus, post-emergence, 336 h, Postemergence, scale 0 to 100, read-out: Plant response rating, Pigweed
# Procedure, shortened: (§2)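 Seeds sown in a loam soil and sand blend were treated preemergence; plants in peat-moss/vermiculite medium were sprayed at the 1- to 4-leaf stage (2-18 cm). Chemicals were in a non-phytotoxic surfactant-containing solvent. After 13 to 15 days in a greenhouse, injury was visually rated against controls on a 0-100 scale.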
# kochia (Kochia scoparia) [11] = test: Test C postemergence; format: in vivo; conditions: Bassia scoparia, post-emergence, Postemergence, scale 0 to 100, read-out: Plant response rating, Kochia
# Procedure, shortened: as §2
# rice (Oryza sativa) = test: Test B flooded paddy; format: in vivo; conditions: Oryza sativa, 336 h; 250 g ai/ha, Flood, 13 to 15 days, scale 0 (no effect) to 100 (complete control); read-out: Plant response rating, Rice
# Procedure, shortened: (§3)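 Under a constant 3 cm flood, test compounds went directly into the paddy water. Following 13 to 15 days of greenhouse growth, treated species and controls were compared by eye.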
# [12] = test system: barnyardgrass (Echinochloa crus-galli); test: Test B flooded paddy; format: in vivo; conditions: Echinochloa crus-galli, 336 h; 250 g ai/ha, Flood, 13 to 15 days, scale 0 (no effect) to 100 (complete control); read-out: Plant response rating, Barnyardgrass
# Procedure, shortened: as §3
# [13] = test system: ducksalad (Heteranthera limosa); test: Test B flooded paddy; format: in vivo; conditions: Heteranthera limosa, 336 h; 250 g ai/ha, Flood, 13 to 15 days, scale 0 (no effect) to 100 (complete control); read-out: Plant response rating, Ducksalad
# Procedure, shortened: as §3
# [14] = test system: sedge, umbrella (small-flower umbrella sedge, Cyperus difformis); test: Test B flooded paddy; format: in vivo; conditions: Cyperus difformis, 336 h; 250 g ai/ha, Flood, 13 to 15 days, scale 0 (no effect) to 100 (complete control); read-out: Plant response rating, Sedge, Umbrella
# Procedure, shortened: as §3
# [15] = test system: pigweed (Amaranthus retroflexus); test: Test A preemergence; format: in vivo; conditions: Amaranthus retroflexus, pre-emergence, 240 h, 0 to 100 scale (0 no effect, 100 complete control), read-out: Pigweed plant response rating
# Procedure, shortened: as §1
# [16] = test system: giant foxtail (Setaria faberii); test: Test A preemergence; format: in vivo; conditions: Setaria faberi, pre-emergence, 240 h, 0 to 100 scale (0 no effect, 100 complete control), read-out: Foxtail, Giant plant response rating
# Procedure, shortened: as §1
# [17] = test system: barnyardgrass (Echinochloa crus-galli); test: Test A preemergence; format: in vivo; conditions: Echinochloa crus-galli, pre-emergence, 240 h, 0 to 100 scale (0 no effect, 100 complete control), read-out: Barnyardgrass plant response rating
# Procedure, shortened: as §1
# [18] = test system: Italian ryegrass (Lolium multiflorum); test: Test A preemergence; format: in vivo; conditions: Lolium multiflorum, pre-emergence, 240 h, 0 to 100 scale (0 no effect, 100 complete control), read-out: Ryegrass, Italian plant response rating
# Procedure, shortened: as §1
# [19] = test system: ragweed (common ragweed, Ambrosia elatior); test: Test A preemergence; format: in vivo; conditions: Ambrosia artemisiifolia, pre-emergence, 240 h, 0 to 100 scale (0 no effect, 100 complete control), read-out: Ragweed plant response rating
# Procedure, shortened: as §1
# kochia (Kochia scoparia) [20] = test: Test A preemergence; format: in vivo; conditions: Bassia scoparia, pre-emergence, 240 h, 0 to 100 scale (0 no effect, 100 complete control), read-out: Kochia plant response rating
# Procedure, shortened: as §1
smiles,measurement,setting,value
"N#Cc1cccc(Oc2ncc(C(F)(F)F)cn2)c1Oc1ncc(Cl)cn1 [Compound 39, 2-[(5-chloro-2-pyrimidinyl)oxy]-3-[[5-(trifluoromethyl)-2-pyrimidinyl]oxy]-benzonitrile]",pest or weed control at 31 g/ha,[1]; 31 g ai/ha,100%
same,pest or weed control at 125 g/ha,[1]; 125 g ai/ha,100%
same,plant injury at 31 g/ha,[2]; 31 g ai/ha,10%
same,plant injury at 125 g/ha,[2]; 125 g ai/ha,90%
same,pest or weed control at 31 g/ha,[3]; 31 g ai/ha,100%
same,pest or weed control at 125 g/ha,[3]; 125 g ai/ha,100%
same,pest or weed control at 31 g/ha,[4]; 31 g ai/ha,90%
same,pest or weed control at 125 g/ha,[4]; 125 g ai/ha,90%
same,pest or weed control at 31 g/ha,[5]; 31 g ai/ha,40%
same,pest or weed control at 125 g/ha,[5]; 125 g ai/ha,90%
same,pest or weed control at 31 g/ha,[6]; 31 g ai/ha,40%
same,pest or weed control at 125 g/ha,[6]; 125 g ai/ha,60%
same,pest or weed control at 31 g/ha,[7]; 31 g ai/ha,100%
same,pest or weed control at 125 g/ha,[7]; 125 g ai/ha,100%
same,pest or weed control at 31 g/ha,[8]; 31 g ai/ha,80%
same,pest or weed control at 125 g/ha,[8]; 125 g ai/ha,100%
same,pest or weed control at 31 g/ha,kochia (Kochia scoparia) [9]; 31 g ai/ha,100%
same,pest or weed control at 125 g/ha,kochia (Kochia scoparia) [9]; 125 g ai/ha,100%
same,"Corn plant response rating (crop injury, 0 = no effect, 100 = complete kill) at 31 g/ha",corn (Zea mays); 31 g ai/ha,60%
same,"Corn plant response rating (crop injury, 0 = no effect, 100 = complete kill) at 125 g/ha",corn (Zea mays); 125 g ai/ha,100%
same,pest or weed control at 31 g/ha,[10]; 31 g ai/ha,70%
same,pest or weed control at 62 g/ha,[10]; 62 g ai/ha,90%
same,pest or weed control at 125 g/ha,[10]; 125 g ai/ha,95%
same,pest or weed control at 16 g/ha,kochia (Kochia scoparia) [11]; 16 g ai/ha,90%
same,pest or weed control at 31 g/ha,kochia (Kochia scoparia) [11]; 31 g ai/ha,95%
same,pest or weed control at 62 g/ha,kochia (Kochia scoparia) [11]; 62 g ai/ha,100%
same,pest or weed control at 125 g/ha,kochia (Kochia scoparia) [11]; 125 g ai/ha,100%
same,plant injury at 250 g/ha,rice (Oryza sativa),50%
same,pest or weed control at 250 g/ha,[12],50%
same,pest or weed control at 250 g/ha,[13],100%
same,pest or weed control at 250 g/ha,[14],100%
same,melting point,,109 to 112 °C
same,pest or weed control at 31 g/ha,[15]; 31 g ai/ha,100%
same,pest or weed control at 125 g/ha,[15]; 125 g ai/ha,100%
same,pest or weed control at 31 g/ha,[16]; 31 g ai/ha,100%
same,pest or weed control at 125 g/ha,[16]; 125 g ai/ha,100%
same,pest or weed control at 31 g/ha,[17]; 31 g ai/ha,80%
same,pest or weed control at 125 g/ha,[17]; 125 g ai/ha,100%
same,pest or weed control at 31 g/ha,[18]; 31 g ai/ha,10%
same,pest or weed control at 125 g/ha,[18]; 125 g ai/ha,90%
same,pest or weed control at 31 g/ha,[19]; 31 g ai/ha,0%
same,pest or weed control at 125 g/ha,[19]; 125 g ai/ha,40%
same,pest or weed control at 31 g/ha,kochia (Kochia scoparia) [20]; 31 g ai/ha,90%
same,pest or weed control at 125 g/ha,kochia (Kochia scoparia) [20]; 125 g ai/ha,100%
